The source of these data is BindingDB's records for patent US11028085 (Nimbus Saturn, 2021).

As a reminder, the IC50 is the concentration that gives 50% inhibition. High values mean weaker potency in that assay, low ones greater potency in that assay.

A value given as a limit tells only on which side of the number the result lay.

The target in the experiment is Mitogen-activated protein kinase kinase kinase kinase 1 (Homo sapiens, UniProt Q92918). Description: Biochemical Enzyme Assay. The protocol:
HPK1 biochemical enzyme assay: HPK1 enzyme inhibition was measured using a microfluidic mobility shift assay. […] Test compounds were titrated in ten point curves (top final assay concentration […]), and preincubated with enzyme/substrate mix for 30 min prior to initiation of the reaction by addition of ATP (1 mM final concentration) and substrate ([…] final concentration; Carna Biosciences) diluted in assay buffer supplemented by MgCl2 (final assay concentration of 5 mM). Following 60 min incubation at RT, the reaction was terminated by addition of 60 µl/well termination buffer (Carna Biosciences) and signal determination using a Caliper EZ Reader (Perkin Elmer, UK).

Mitogen-activated protein kinase kinase kinase kinase 1, sequence (Q92918 whole entry): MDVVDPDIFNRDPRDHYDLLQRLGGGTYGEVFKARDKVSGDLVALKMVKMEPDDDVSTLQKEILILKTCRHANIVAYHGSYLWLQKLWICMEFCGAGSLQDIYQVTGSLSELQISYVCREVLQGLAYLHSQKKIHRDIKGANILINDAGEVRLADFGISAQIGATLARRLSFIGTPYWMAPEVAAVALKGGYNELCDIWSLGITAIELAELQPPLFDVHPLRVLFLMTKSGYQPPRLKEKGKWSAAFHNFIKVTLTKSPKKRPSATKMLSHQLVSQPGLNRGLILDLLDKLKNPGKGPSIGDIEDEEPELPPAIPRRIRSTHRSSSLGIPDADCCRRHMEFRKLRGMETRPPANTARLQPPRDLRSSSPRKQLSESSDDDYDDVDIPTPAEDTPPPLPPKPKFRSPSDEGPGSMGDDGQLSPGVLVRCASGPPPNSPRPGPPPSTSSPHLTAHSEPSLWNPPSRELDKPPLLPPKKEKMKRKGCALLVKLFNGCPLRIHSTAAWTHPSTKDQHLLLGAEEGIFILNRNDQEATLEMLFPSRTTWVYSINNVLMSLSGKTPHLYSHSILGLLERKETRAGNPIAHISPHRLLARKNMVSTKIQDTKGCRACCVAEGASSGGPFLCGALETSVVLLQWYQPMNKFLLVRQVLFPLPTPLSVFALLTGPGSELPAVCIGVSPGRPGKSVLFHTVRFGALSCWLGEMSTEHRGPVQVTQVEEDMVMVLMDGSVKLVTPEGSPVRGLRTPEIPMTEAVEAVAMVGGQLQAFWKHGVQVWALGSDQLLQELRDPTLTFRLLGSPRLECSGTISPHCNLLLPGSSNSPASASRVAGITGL

Take `CCOc1c(C#N)cnn2c(-c3ccc(Nc4ccc(N5CCC(O)CC5)cn4)c4c3CNC4=O)cnc12` [US11028085, Compound I-185]: the IC50 result is “in the range around 550 nM”.

Take `CN1CC(c2ccn3c(-c4ccc(Nc5ccc(N6CCC(O)CC6)cc5)c5c4CNC5=O)cnc3c2)C1` [US11028085, Compound I-411]: the 50% inhibitory concentration (IC50) is less than 100 nM.
